Laboratory results from US6011014A, “Peptide T and related peptides in the treatment of inflammation, including multiple sclerosis” (Advanced Immunit, Inc., priority 1998, dated 2000).
Square brackets hold non-standard residues; d marks the D form. Peptide text beside a SMILES is read from it.

Legend:
[1] = pharmacokinetics of Peptide T; settings: following administration in vivo
From the text: Initial research in this area was focused on the CNS for two reasons: a high concentration of CD4 molecules was found on neurons and one of the major effect of HIV infection is the development of neurocognitive dysfunction.
1. Macrophages may be more sensitive to Peptide T than are T cells, since T cells receive many more potential activating signals than the CD4/MHC II interaction. Thus macrophages may be down regulated by Peptide T administration on the first day of in vitro culture inhibiting their ability to present mitogens and antigens to T cells. B cells can act as APC in place of macrophages when presenting antigen, but not when presenting mitogens which are antigen non-specific (explaining the results of Table III). Resting B cells are resistant to Peptide T as they are CD4 negative. In the presence of a single dose of Peptide T, they could present antigen to T cells allowing proliferation of PBMC in response to antigen. When Peptide T is given on a daily basis in cultured T cells, which may be less sensitive to the effects of Peptide T, then macrophages may be inhibited. Daily administration of Peptide T in vivo, may not function as it does on a daily basis in vitro, since the half life of Peptide T in vivo is shorter than in vitro. In vitro serum supplements are heat inactivated to destroy proteolytic enzymes which actively degrade Peptide T in vivo. […]

[2] = tolerability of Peptide T therapy; type: in vivo, human; settings: patients
From the text: Cyclosporine is an anti-inflammatory drug that inhibits lymphocyte proliferation by inhibiting IL-2 and IFN γ gene transcription by binding to and inactivating cyclophilin, an isomerase required for signal transduction (Halloran et al, Clin. Biochem. 24 3-7 (1991)). […] Cyclosporine induced side effects include renal tubular atrophy, nephrotoxicity, hypertension, hirsutism, gingival hypertrophy, tremors, convulsions and paresthesia (Briggs J.D. Immunol. Lett. 29 89-94 (1991)).

[3] = test system: PBMC; assay: mitogen-induced lymphoproliferation (Example 17, 20); type: cell-based, human; settings: Con A-induced proliferation measured daily, 10^-9 M; FIG. 3
Procedure: Concanavalin A (Con A), pokeweed mitogen, (PWM) and phytohaemagglutin-P (PHA-P) were obtained from Sigma Chemical Co. (St. Louis, Mo., U.S.A.). Peptide T was synthesised by Carlbiotech Ltd (Copenhagen, Denmark) and supplied as the chloride salt at 8.5 mg/ml in 0.9% benzyl alcohol as a preservative and was stored at 4° C. Peptide T was diluted to working solutions in culture medium (RPMI). Dilute solutions of Peptide T were prepared fresh from stock Peptide T for each experiment. ^3 H-thymidine (5 Ci/mmol) was obtained from Amersham.
Isolation of PBMC: Whole blood from healthy, adult volunteers was drawn into heparin and peripheral blood mononuclear cells (PBMC) isolated by density gradient centrifugation on HISTOPAQUE™ (Sigma Chemical Co). PBMC were removed from the interface, washed three times in RPMI containing gentamycin (100 μg/ml) and resuspended to 1×10^6 PBMC/ml in RPMI containing 10% foetal bovine serum and gentamycin. 10^5 PBMC were cultured in the presence of 100 μl of mitogen suspension in 96 well plates. […] The amount of incorporated ^3 H-thymidine was determined using a BECKMAN™ LS8000 liquid scintillation counter and proliferation expressed as either counts per minute (cpm) or as a proliferation index (PI). […]
10^5 PBMC were cultured in the presence of PWM, Con A or PHA (see Example 17). […] Data were analysed by two sample ANOVA using 95% confidence limits.

[4] = test system: MO/MAC cytotoxicity against K562 target cells; assay: macrophage cytotoxicity assay; type: cell-based, human; settings: Peptide T added with target cells (step 2) or every day; FIG. 7
Procedure: The MO/MAC cytotoxicity assay is a two step assay. After isolation of adherent cells (mainly MO/MAC) from PBMC, MO/MAC are activated by lymphokines (including IFN gamma and LPS. Subsequent to washing which removes activators, ^3 H-thymidine labelled K562 target cells were added to activated MO/MAC and incubated for 3 days. The degree of cytotoxicity was proportional to the amount of radioactive label released into the culture supernatant, is shown in the following scheme: […]

[5] = test system: Mice bearing Meth A ascites tumours; assay: LPS toxicity in Meth A ascites tumour bearing mice; type: in vivo, mouse; settings: 100 μg LPS s.c. + 1 mg analogue; for % mice surviving 41 hours: LPS + BSA 60; for % mice with diarrhoea at 19 hrs / % mice with exudate at 19 hrs: LPS + BSA 100
Procedure: Mice bearing Meth A ascites tumours were given 100 μg LPS subcutaneously with either bovine serum albumin (BSA) or peptide T analogue (504 or 505, 1 mg). The number of animals showing signs of LPS toxicity (diarrhoea, exudate from the eyes and general level of activity) in each group was recorded at 19, 24 and 41 hours after injection. At the completion of the experiment the number of surviving animals was recorded (see Table II below) and the survivors bled for later determination of TNF, IL-1 , IL-6 and RNI levels.

[6] = test system: human neutrophils; assay: TNF-induced neutrophil chemiluminescence; type: cell-based; settings: FIG. 13
Procedure: (§1) Neutrophils were isolated from whole blood from healthy blood donors. Separation was achieved by the rapid-single-step method of centrifugation of whole blood on FICOLL-HYPAQUE™. These were >99% viable and usually >98% pure.
TNF was a recombinant product produced in E. coli. Peptide T and analogue 505 (D-Ser-Ser-D-Thr-Thr-D-Thr-Thr-Tyr-D-Thr) were resuspended in Hank's Balanced Salt Solution (HBSS).
(§2) To 100 μl of 500-1000 U/ml of TNF was added 10 μl of peptide and after 5 min 100 μl of 1×10^7 neutrophils/ml was added. The cells further incubated at 37° C. /20 min and then tested for chemiluminescence activity. In some cases an agonist such as fMLP (10^-7 M) was added. Chemiluminescence was measured in a luminometer (LKB). The results for Peptide T are presented in FIG. 12 as peak rate of CL release. Lucigenin-dependent chemiluminescence was measured: this represents superoxide measurement. In another set of experiments the effects of analogue 505 on the LPS-induced neutrophil chemiluminescence were examined. In this case the LPS was essentially substituted for the TNF. The concentration of LPS was 0.005 μg/ml.

[7] = test system: human neutrophils; assay: LPS-induced neutrophil chemiluminescence; type: cell-based; settings: LPS 0.005 μg/ml; FIG. 14
Procedure: as §1, §2

SMILES	peak plasma concentrations [1]	side effects attributable to Peptide T therapy [2]	cytotoxicity for responding lymphocytes [3]	cytotoxicity of activated MO/MAC [4]	% mice surviving 41 hours [5]	% mice with diarrhoea at 19 hrs [5]	% mice with exudate at 19 hrs [5]	TNF priming and activation of human neutrophils (chemiluminescence) [6]	LPS activation of human neutrophils (chemiluminescence) [7]
C[C@@H](N)C(=O)N[C@@H](CO)C(=O)N[C@H](C(=O)N[C@H](C(=O)N[C@H](C(=O)N[C@@H](CC(N)=O)C(=O)N[C@@H](Cc1ccc(O)cc1)C(=O)N[C@H](C(N)=O)[C@@H](C)O)[C@@H](C)O)[C@@H](C)O)[C@@H](C)O [Peptide T, D-Ala-Ser-Thr-Thr-Thr-Asn-Tyr-Thr-Amide]	55 nM	no significant side effects	not cytotoxic	inhibit the cytotoxicity					
C[C@H](O)[C@@H](NC(=O)[C@H](Cc1ccc(O)cc1)NC(=O)[C@H](CC(N)=O)NC(=O)[C@H](NC(=O)[C@@H](NC(=O)[C@H](NC(=O)[C@H](CO)NC(=O)[C@@H](C)N)[C@H](C)O)[C@@H](C)O)[C@H](C)O)C(N)=O [compound 504, H-D-Ala-Ser-D-Thr-Thr-D-Thr-Asn-Tyr-D-Thr-NH2]					100%	40%	60%		
C[C@H](O)[C@@H](NC(=O)[C@H](Cc1ccc(O)cc1)NC(=O)[C@@H](NC(=O)[C@H](NC(=O)[C@@H](NC(=O)[C@H](NC(=O)[C@H](CO)NC(=O)[C@H](N)CO)[C@H](C)O)[C@@H](C)O)[C@H](C)O)[C@@H](C)O)C(N)=O [compound 505, H-D-Ser-Ser-D-Thr-Thr-D-Thr-Thr-Tyr-D-Thr-NH2] (H-[dS]S[dT]T[dT]TY[dT]-NH2)					100%	40%	20%	inhibits TNF priming and activation of human neutrophils	inhibits LPS activation of human neutrophils
